Assays:
[1] = system: barnyardgrass; assay: Test C preemergence; assay type: in vivo, Echinochloa crusgalli; conditions: 0 to 100 scale (0 no effect, 100 complete control); for Plant response rating, Barnyardgrass: Preemergence, 500 g ai/ha, visual rating after 10 days; for Barnyardgrass plant response rating: Test C, preemergence, 125 g ai/ha
Summary of the method: (§1)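 Test material, in non-phytotoxic solvent with surfactant, was sprayed on the soil directly after seeding (preemergence) or on young plants of 2–10 cm with one to two leaves (postemergence). Greenhouse, 10 days; 0–100 visual control scale.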

[2] = system: blackgrass; assay: Test C preemergence; assay type: in vivo, Alopecurus myosuroides; conditions: 0 to 100 scale (0 no effect, 100 complete control); for Plant response rating, Blackgrass: Preemergence, 500 g ai/ha, visual rating after 10 days; for Blackgrass plant response rating: Test C, preemergence, 125 g ai/ha
Summary of the method: as §1

[3] = system: corn; assay: Test C preemergence; assay type: in vivo, Zea mays; conditions: 0 to 100 scale (0 no effect, 100 complete control); for Plant response rating, Corn: Preemergence, 500 g ai/ha, visual rating after 10 days; for Corn plant response rating: Test C, preemergence, 125 g ai/ha
Summary of the method: as §1

[4] = system: green foxtail; assay: Test C preemergence; assay type: in vivo, Setaria viridis; conditions: 0 to 100 scale (0 no effect, 100 complete control); for Plant response rating, Foxtail, Green: Preemergence, 500 g ai/ha, visual rating after 10 days; for Foxtail, Green plant response rating: Test C, preemergence, 125 g ai/ha
Summary of the method: as §1

[5] = system: kochia; assay: Test C preemergence; assay type: in vivo, Bassia scoparia; conditions: 0 to 100 scale (0 no effect, 100 complete control); for Plant response rating, Kochia: Preemergence, 500 g ai/ha, visual rating after 10 days; for Kochia plant response rating: Test C, preemergence, 125 g ai/ha
Summary of the method: as §1

[6] = system: oat, wild; assay: Test C preemergence; assay type: in vivo, Avena fatua; conditions: 0 to 100 scale (0 no effect, 100 complete control); for Plant response rating, Oat, Wild: Preemergence, 500 g ai/ha, visual rating after 10 days; for Oat, Wild plant response rating: Test C, preemergence, 125 g ai/ha
Summary of the method: as §1

[7] = system: pigweed, palmer; assay: Test C preemergence; assay type: in vivo, Amaranthus palmeri; conditions: 0 to 100 scale (0 no effect, 100 complete control); for Plant response rating, Pigweed, Palmer: Preemergence, 500 g ai/ha, visual rating after 10 days; for Pigweed, Palmer plant response rating: Test C, preemergence, 125 g ai/ha
Summary of the method: as §1

[8] = system: ragweed; assay: Test C preemergence; assay type: in vivo, Ambrosia artemisiifolia; conditions: 0 to 100 scale (0 no effect, 100 complete control); for Plant response rating, Ragweed: Preemergence, 500 g ai/ha, visual rating after 10 days; for Ragweed plant response rating: Test C, preemergence, 125 g ai/ha
Summary of the method: as §1

[9] = system: ryegrass, Italian; assay: Test C preemergence; assay type: in vivo, Lolium multiflorum; conditions: 0 to 100 scale (0 no effect, 100 complete control); for Plant response rating, Ryegrass, Italian: Preemergence, 500 g ai/ha, visual rating after 10 days; for Ryegrass, Italian plant response rating: Test C, preemergence, 125 g ai/ha
Summary of the method: as §1

[10] = system: soybean; assay: Test C preemergence; assay type: in vivo, Glycine max; conditions: 0 to 100 scale (0 no effect, 100 complete control); for Plant response rating, Soybean: Preemergence, 500 g ai/ha, visual rating after 10 days; for Soybean plant response rating: Test C, preemergence, 125 g ai/ha
Summary of the method: as §1

[11] = system: wheat; assay: Test C preemergence; assay type: in vivo, Triticum aestivum; conditions: 0 to 100 scale (0 no effect, 100 complete control); for Plant response rating, Wheat: Preemergence, 500 g ai/ha, visual rating after 10 days; for Wheat plant response rating: Test C, preemergence, 125 g ai/ha
Summary of the method: as §1

[12] = system: barnyardgrass; assay: Test C postemergence; assay type: in vivo, Echinochloa crusgalli; conditions: 10 days
Summary of the method: as §1

[13] = system: blackgrass; assay: Test C postemergence; assay type: in vivo, Alopecurus myosuroides; conditions: 10 days
Summary of the method: as §1

[14] = system: corn; assay: Test C postemergence; assay type: in vivo, Zea mays; conditions: 10 days
Summary of the method: as §1

[15] = system: kochia; assay: Test C postemergence; assay type: in vivo, Bassia scoparia; conditions: 10 days
Summary of the method: as §1

[16] = system: oat, wild; assay: Test C postemergence; assay type: in vivo, Avena fatua; conditions: 10 days
Summary of the method: as §1

[17] = system: pigweed, palmer; assay: Test C postemergence; assay type: in vivo, Amaranthus palmeri; conditions: 10 days
Summary of the method: as §1

[18] = system: ragweed; assay: Test C postemergence; assay type: in vivo, Ambrosia artemisiifolia; conditions: 10 days
Summary of the method: as §1

[19] = system: ryegrass, Italian; assay: Test C postemergence; assay type: in vivo, Lolium multiflorum; conditions: 10 days
Summary of the method: as §1

[20] = system: soybean; assay: Test C postemergence; assay type: in vivo, Glycine max; conditions: 10 days
Summary of the method: as §1

[21] = system: wheat; assay: Test C postemergence; assay type: in vivo, Triticum aestivum; conditions: 10 days
Summary of the method: as §1

[22] = system: galium; assay: Test C postemergence; assay type: in vivo, Galium aparine; conditions: 10 days
Summary of the method: as §1

[23] = system: horseweed; assay: Test C postemergence; assay type: in vivo, Erigeron canadensis; conditions: 10 days
Summary of the method: as §1

[24] = system: barnyardgrass; assay: Test D flooded paddy test; assay type: in vivo, Echinochloa crus-galli; conditions: 250 g ai/ha, applied to paddy water, visual rating after 13 to 14 days, scale 0 to 100 (0 no effect, 100 complete control)
Summary of the method: (§2)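 2-leaf plants; flood 3 cm above soil; compound dosed into paddy water; greenhouse 13–14 d; visual rating vs controls, 0–100 (100 = complete control); dash = not tested.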

[25] = system: ducksalad; assay: Test D flooded paddy test; assay type: in vivo, Heteranthera limosa; conditions: 250 g ai/ha, applied to paddy water, visual rating after 13 to 14 days, scale 0 to 100 (0 no effect, 100 complete control)
Summary of the method: as §2

[26] = system: rice; assay: Test D flooded paddy test; assay type: in vivo, Oryza sativa; conditions: 250 g ai/ha, applied to paddy water, visual rating after 13 to 14 days, scale 0 to 100 (0 no effect, 100 complete control)
Summary of the method: as §2

[27] = system: sedge, umbrella; assay: Test D flooded paddy test; assay type: in vivo, Cyperus difformis; conditions: 250 g ai/ha, applied to paddy water, visual rating after 13 to 14 days, scale 0 to 100 (0 no effect, 100 complete control)
Summary of the method: as §2

[28] = 125 g ai/ha, postemergence, 0 to 100 scale, 0 no effect, 100 complete control
[29] = Postemergence, 500 g ai/ha, visual 0 to 100 scale (0 no effect, 100 complete control)

CCc1ncn(-c2ccc(OC)c(C(=O)N3C[C@H](COC)Oc4c(Cl)cccc43)c2)n1 [Compound 231]
80: Plant response rating, Oat, Wild [6] | Plant response rating, Wheat [11] | Plant response rating, Barnyardgrass [12, 28] | Plant response rating, Blackgrass [13, 28] | Plant response rating, Kochia [15, 28]
0: Plant response rating, Rice (Flood) [26]
30: Plant response rating, Corn [3]
10: Corn plant response rating [3]
50: Ragweed plant response rating [8] | Plant response rating, Oat, Wild [16, 28] | Plant response rating, Wheat [21, 28]
100: Plant response rating, Barnyardgrass [1] | Plant response rating, Foxtail, Green [4] | Foxtail, Green plant response rating [4] | Plant response rating, Kochia [5] | Plant response rating, Pigweed, Palmer [7] | Pigweed, Palmer plant response rating [7] | Plant response rating, Ryegrass, Italian [19, 29] | Plant response rating, Soybean [20, 28] | Plant response rating, Soybean [20, 29] | Plant response rating, Galium [22, 28] | Plant response rating, Galium [22, 29] | Plant response rating, Sedge, Umbrella (Flood) [27]
40: Oat, Wild plant response rating [6] | Wheat plant response rating [11]
15: Plant response rating, Barnyardgrass (Flood) [24]
90: Plant response rating, Blackgrass [2] | Kochia plant response rating [5] | Plant response rating, Ragweed [8] | Plant response rating, Ryegrass, Italian [9] | Plant response rating, Barnyardgrass [12, 29] | Plant response rating, Blackgrass [13, 29] | Plant response rating, Corn [14, 29] | Plant response rating, Kochia [15, 29] | Plant response rating, Oat, Wild [16, 29] | Plant response rating, Pigweed, Palmer [17, 28] | Plant response rating, Pigweed, Palmer [17, 29] | Plant response rating, Ryegrass, Italian [19, 28] | Plant response rating, Wheat [21, 29] | Plant response rating, Horseweed [23, 29]
85: Plant response rating, Ducksalad (Flood) [25]
60: Barnyardgrass plant response rating [1] | Blackgrass plant response rating [2] | Soybean plant response rating [10] | Plant response rating, Horseweed [23, 28]
70: Ryegrass, Italian plant response rating [9] | Plant response rating, Soybean [10] | Plant response rating, Corn [14, 28] | Plant response rating, Ragweed [18, 28] | Plant response rating, Ragweed [18, 29]

Cc1ccc(-n2cnc(C(C)(C)O)n2)cc1C(=O)N1C[C@H](C)Oc2c(C)cccc21 [Compound 256]
90: Plant response rating, Blackgrass [2] | Plant response rating, Corn [3] | Plant response rating, Kochia [5] | Plant response rating, Oat, Wild [6] | Oat, Wild plant response rating [6] | Plant response rating, Ragweed [8] | Ryegrass, Italian plant response rating [9] | Plant response rating, Soybean [10] | Plant response rating, Wheat [11] | Plant response rating, Barnyardgrass [12, 29] | Plant response rating, Blackgrass [13, 28] | Plant response rating, Blackgrass [13, 29] | Plant response rating, Corn [14, 28] | Plant response rating, Corn [14, 29] | Plant response rating, Oat, Wild [16, 28] | Plant response rating, Oat, Wild [16, 29] | Plant response rating, Ryegrass, Italian [19, 28] | Plant response rating, Wheat [21, 29]
35: Plant response rating, Rice (Flood) [26]
98: Plant response rating, Ducksalad (Flood) [25] | Plant response rating, Sedge, Umbrella (Flood) [27]
100: Plant response rating, Barnyardgrass [1] | Barnyardgrass plant response rating [1] | Plant response rating, Foxtail, Green [4] | Foxtail, Green plant response rating [4] | Plant response rating, Pigweed, Palmer [7] | Pigweed, Palmer plant response rating [7] | Plant response rating, Ryegrass, Italian [9] | Soybean plant response rating [10] | Plant response rating, Pigweed, Palmer [17, 29] | Plant response rating, Ryegrass, Italian [19, 29] | Plant response rating, Soybean [20, 28] | Plant response rating, Soybean [20, 29] | Plant response rating, Galium [22, 28] | Plant response rating, Galium [22, 29]
30: Plant response rating, Horseweed [23, 28]
70: Blackgrass plant response rating [2] | Ragweed plant response rating [8] | Plant response rating, Ragweed [18, 28]
45: Plant response rating, Barnyardgrass (Flood) [24]
50: Corn plant response rating [3]
60: Plant response rating, Barnyardgrass [12, 28] | Plant response rating, Kochia [15, 28]
80: Kochia plant response rating [5] | Wheat plant response rating [11] | Plant response rating, Kochia [15, 29] | Plant response rating, Pigweed, Palmer [17, 28] | Plant response rating, Ragweed [18, 29] | Plant response rating, Wheat [21, 28]
40: Plant response rating, Horseweed [23, 29]

— patent publication US20260262643A1, “HERBICIDAL BENZOXAZINES” (FMC CORPORATION, priority 2022, published 2026)
